# Reference: patent US20060205716A1, “Microbicidal agents” (priority 2003, published 2006)
# Tests used:
# [1] = tested on: moulds (Acremonium strictum, Fusarium solani, Geotrichum candidum); experiment: Preservation of a cooling lubricant emulsion, repeated weekly contamination: moulds; details: limit <10^3-4 CFU/g, maximum test duration 10 weeks
# Description: (§1) What was examined was the preserving action of CMC/MIT mixtures according to the invention in a cooling lubricant emulsion (5% mineral oil/emulsifier concentrate/95% water). To this end, biocide-free and perserved samples of a cooling lubricant emulsion were repeatedly, at weekly intervals, exposed to microbiological stress using the following microorganisms:
# Moulds: • Acremonium strictum • Fusarium solani • Geotrichum candidum
# (§2) In each case, the bacteria were added separately from the yeasts/moulds.
# (§3) The maximum duration of the test was 10 weeks (=10 contaminations), if the following limits were not exceeded during the weekly determination of the number of germs:
# (§4) yeasts/moulds<10^3-4 CFU/g.
# Pseudomonas fluorescens = experiment: Minimum inhibitory concentration / synergism test with test germ Pseudomonas fluorescens; format: cell-based; details: pure active compound applied on its own
# Description: The observed synergism of the mixtures according to the invention can be determined by the following mathematical approach (cf. F. C. Kull, P. C. Elisman, H. D. Sylwestrowicz and P. K. Mayer, Appl. Microbiol. 9, 538 (1961): [formula] where • Qa=the amount of component A in the active compound mixture required to achieve the desired effect, i.e. no microbial growth, • QA=the amount of component A which, applied on its own, suppresses the growth of the microorganisms, • Qb=the amount of component B in the active compound mixture which suppresses the growth of the microorganisms, and • […]=the amount of component B which, applied on its own, suppresses the growth of the microorganisms.
# A synergistic index of SI<1, in accordance with the above formula, indicates a synergistic effect for the active compound mixture.
# The minimum inhibitory concentration of the active compound combinations listed in Table 1 were examined using the test germ Pseudomonas fluorescens
# [2] = tested on: yeasts (Rhodotorula rubra); experiment: Preservation of a cooling lubricant emulsion, repeated weekly contamination: yeasts; details: limit <10^3-4 CFU/g, maximum test duration 10 weeks
# Description: as §1
# Yeasts: • Rhodotorula rubra
# as §2, §3, §4
# [3] = tested on: bacteria (Pseudomonas aeruginosa, P. fluorescens, P. oleovorans, P. rubescens, P. stutzeri, Alcaligenes faecalis, Citrobacter freundii, Corynebacterium sp); experiment: Preservation of a cooling lubricant emulsion, repeated weekly contamination: bacteria; details: limit <10^6 CFU/g, maximum test duration 10 weeks
# Description: as §1
# Bacteria: • Pseudomonas aeruginosa • Pseudomonas fluorescens • Pseudomonas oleovorans • Pseudomonas rubescens • Pseudomonas stutzeri • Alcaligenes faecalis • Citrobacter freundii • Corynebacterium sp
# as §2
# The maximum duration of the test was 10 weeks (=10 contaminations), if the following limits were not exceeded during the weekly determination of the number of germs: […]
# [4] = 0.01% MIT based on cooling lubricant emulsion
# [5] = 0.15% CMC based on cooling lubricant emulsion
Structure (SMILES),"number of weeks without colonization: moulds [1, 4] [weeks]","Amount of pure active compounds required to suppress growth (QA, QB) (Pseudomonas fluorescens)","number of weeks without colonization: yeasts [2, 4] [weeks]","number of weeks without colonization: bacteria [3, 4] [weeks]","number of weeks without colonization: moulds [1, 5] [weeks]","number of weeks without colonization: yeasts [2, 5] [weeks]","number of weeks without colonization: bacteria [3, 5] [weeks]"
"Cn1sccc1=O [MIT, 2-methyl-2H-isothiazol-3-one]",5,5 (QB) ppm,8,8,–,–,–
"Cc1cc(O)ccc1Cl [CMC, p-chloro-m-cresol]",–,150 (QA) ppm,–,–,10,10,3
